Laboratory results from patent US7378375B1, “Substituted pyridine herbicides” (Syngenta Crop Protection, Inc., priority 2000, dated 2008).

How the values were obtained:
[1] = tested on: Monocotyledonous and dicotyledonous test plants; assay: Herbicidal action before emergence of the plants (pre-emergence action), greenhouse pot test, 9-level rating after 4 weeks; type: in vivo; parameters: key: 9-level scale: 1 = complete damage, 9 = no effect; conditions: 250 g/ha, rated after 4 weeks, 9-level scale
Description: Herbicidal Action Before Emergence of the Plants (Pre-Emergence Action)
(§1) Monocotyledonous and dicotyledonous test plants are sown in standard soil in pots. Immediately after sowing, the test substances are sprayed on at an optimum dosage (500 l of water/ha) as an aqueous suspension (prepared from a wettable powder (example F3, b) according to WO 97/34485) or emulsion (prepared from an emulsion concentrate (example F1, c) according to WO 97/34485). The test plants are then grown under optimum conditions in a greenhouse.
After a test period of 4 weeks, the test is evaluated using a 9-level scale of ratings (1=complete damage, 9=no effect). Ratings of 1 to 4 (in particular 1 to 3) mean good to very good herbicidal action.

[2] = tested on: Monocotyledonous and dicotyledonous test plants; assay: Post-emergence herbicidal action, greenhouse pot test, sprayed at the 2- to 3-leaf stage, 9-level rating after 2 to 3 weeks; type: in vivo; parameters: key: 9-level scale: 1 = complete damage, 9 = no effect; conditions: 250 g/ha, rated after 2 to 3 weeks, 9-level scale
Description: Post-Emergence Herbicidal Action
as §1, with “grown” for “sown”, “At the 2- to 3-leaf stage of the test plants,” for “Immediately after sowing,”, “sprayed” for “sprayed on”, “at” for “at an”, “grown further” for “grown”
After a test period of 2 to 3 weeks, the test is evaluated using a 9-level scale of rating (1=complete damage, 9=no effect). Ratings of 1 to 4 (in particular 1 to 3) mean good to very good herbicidal action.

| SMILES | Pre-emergence action rating, Abutilon [1] | Pre-emergence action rating, Amaranthus [1] | Pre-emergence action rating, Chenop. [1] | Pre-emergence action rating, Digitaria [1] | Pre-emergence action rating, Echino. [1] | Pre-emergence action rating, Panicum [1] | Post-emergence action rating, Abutilon [2] | Post-emergence action rating, Amaranth [2] | Post-emergence action rating, Chenop. [2] | Post-emergence action rating, Digitaria [2] | Post-emergence action rating, Echino. [2] | Post-emergence action rating, Ipopur. [2] | Post-emergence action rating, Panicum [2] | Post-emergence action rating, Xanth. [2] |
| --- | --- | --- | --- | --- | --- | --- | --- | --- | --- | --- | --- | --- | --- | --- |
| COCc1nc(C(F)(F)F)ccc1C(=O)c1c(C)nn(C)c1O [A1-C2] | 4 | 3 | 1 | 3 | 3 | 6 | 3 | 2 | 4 | 8 | 4 | 3 | 7 | 4 |
| COCc1nc(C(F)(F)F)ccc1C(=O)c1cnn(C)c1O [A1-C5] | 2 | 2 | 1 | 2 | 1 | 2 | 2 | 2 | 1 | 2 | 2 | 2 | 4 | 4 |
| CCOCc1nc(C(F)(F)F)ccc1C(=O)c1cnn(C)c1O [A2-C5] | 1 | 1 | 1 | 2 | 2 | 1 | 2 | 1 | 1 | 2 | 2 | 2 | 1 | 2 |
| CC(C)OCc1nc(C(F)(F)F)ccc1C(=O)c1cnn(C)c1O [A3-C5] | 1 | 1 |  | 2 | 2 | 1 | 3 | 3 | 1 | 4 | 3 | 3 | 3 | 3 |
| COCOCc1nc(C(F)(F)F)ccc1C(=O)C1=C(O)C2CCC(C2)C1=O (stereo not drawn) [A8-B52] | 1 | 1 |  | 1 | 1 | 1 | 1 | 1 | 1 | 1 | 1 | 1 | 1 | 2 |
| COCCOCc1nc(C(F)(F)F)ccc1C(=O)C1=C(O)CCCC1=O [A10-B1] | 1 | 1 | 1 | 2 | 2 | 2 | 2 | 2 | 1 | 2 | 2 | 2 | 2 | 2 |
| Cn1ncc(C(=O)c2ccc(C(F)(F)F)nc2COCC(F)(F)F)c1O [A834-C5] | 1 | 2 |  | 3 | 1 | 1 |  |  |  |  |  |  |  |  |
| COCC(Br)COCc1nc(C(F)(F)F)ccc1C(=O)C1=C(O)C2CCC(C2)C1=O (stereo not drawn) [A853-B52] | 1 | 1 | 2 | 1 | 2 | 1 |  |  |  |  |  |  |  |  |
| O=C(C1=C(O)C2CCC(C2)C1=O)c1ccc(C(F)(F)F)nc1COCCOCOCc1ccccc1 (stereo not drawn) [A857-B52] |  |  |  |  |  |  | 2 | 2 | 1 | 2 | 2 | 2 | 2 | 2 |
| COCCOCCOCCOCc1nc(C(F)(F)F)ccc1C(=O)C1=C(O)C2CCC(C2)C1=O (stereo not drawn) [A858-B52] |  |  |  |  |  |  | 2 | 1 | 2 | 2 | 2 | 2 | 2 | 2 |
| CCOC(C)OCCOCc1nc(C(F)(F)F)ccc1C(=O)C1=C(O)C2CCC(C2)C1=O (stereo not drawn) [A859-B52] |  |  |  |  |  |  | 2 | 2 | 1 | 2 | 2 | 2 | 1 | 2 |
| CCCCCCCC(=O)OCCOCc1nc(C(F)(F)F)ccc1C(=O)C1=C(O)C2CCC(C2)C1=O (stereo not drawn) [A860-B52] |  |  |  |  |  |  | 2 | 2 | 1 | 1 | 2 | 2 | 2 | 2 |
| CC(=O)OCCOCc1nc(C(F)(F)F)ccc1C(=O)C1=C(O)C2CCC(C2)C1=O (stereo not drawn) [A861-B52] |  |  |  |  |  |  | 3 | 2 | 1 | 3 | 5 | 2 | 2 | 2 |
| CS(=O)(=O)OCCOCc1nc(C(F)(F)F)ccc1C(=O)C1=C(O)C2CCC(C2)C1=O (stereo not drawn) [A862-B52] |  |  |  |  |  |  | 3 | 2 | 1 | 2 | 3 | 5 | 2 | 2 |
| O=C(C1=C(O)C2CCC(C2)C1=O)c1ccc(C(F)(F)F)nc1COCCCOCc1ccccc1 (stereo not drawn) [A863-B52] |  |  |  |  |  |  | 2 | 2 | 1 | 2 | 3 | 3 | 2 | 2 |
| CN(Cc1nc(C(F)(F)F)ccc1C(=O)C1=C(O)C2CCC(C2)C1=O)S(C)(=O)=O (stereo not drawn) [A864-B52] |  |  |  |  |  |  | 2 | 2 | 1 | 2 | 2 | 2 | 2 | 2 |
| CN(Cc1nc(C(F)(F)F)ccc1C(=O)c1cnn(C)c1O)S(C)(=O)=O [A864-C5] |  |  |  |  |  |  | 2 | 1 | 1 | 2 | 2 | 2 | 1 | 2 |
